Like-named read-outs stand apart in the source and are kept apart here.
Legend:
A549 lung cancer cells = assay: Cell growth inhibition, Sulforhodamine B assay (SRB); assay type: cell-based; conditions: Homo sapiens, A549, 120 h, 5 days culture, read-out: Cell Line GI50 Range, A-549
Method in brief: (§1)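 Cells seeded 24 h before compound addition, then exposed to 10 nM–50 μM final compound in DMEM + 10% FBS for 5 days. Growth measured by TCA fixation, SRB staining and absorbance at 570 nm; % inhibition relative to DMSO-only cells, with GI50 fitted for cytotoxic compounds.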

[1] = system: HCC1954 basal breast cancer cell line; assay: as above; assay type: cell-based; conditions: Homo sapiens
Method in brief: as §1

[2] = system: MCF-7 luminal breast cancer cell line; assay: as above; assay type: cell-based; conditions: Homo sapiens, MCF7, 120 h; 5 days culture, SRB; read-out: Cell Line GI50 Range, MCF-7
Method in brief: as §1

[3] = system: MDA-MB-468 basal breast cancer cell line; assay: as above; assay type: cell-based; conditions: Homo sapiens, MDA-MB-468, 120 h; 5 days culture, SRB; read-out: Cell Line GI50 Range, MDA-MB-468
Method in brief: as §1

SW620 colon cancer cells = assay: as above; assay type: cell-based; conditions: Homo sapiens, SW-620, 120 h, 5 days culture, read-out: Cell Line GI50 Range, SW-620
Method in brief: as §1

[4] = system: human mammary epithelial primary cells (HMEC); assay: as above; assay type: cell-based; conditions: 120 h, 5 days culture, read-out: Cell Line GI50 Range, HMEC
Method in brief: as §1

Akt1/PKBa = biological target: T1, Akt1/PKBa (Homo sapiens, UniProt P31749); assay: Kinase Selectivity Assay (CEREP, HTRF); assay type: biochemical; conditions: read-out: % Inhibition at 10 μM Concentration, Akt1/PKBalpha
T1 construct: CEREP, France (ran the assays)
T1 sequence (P31749 whole entry): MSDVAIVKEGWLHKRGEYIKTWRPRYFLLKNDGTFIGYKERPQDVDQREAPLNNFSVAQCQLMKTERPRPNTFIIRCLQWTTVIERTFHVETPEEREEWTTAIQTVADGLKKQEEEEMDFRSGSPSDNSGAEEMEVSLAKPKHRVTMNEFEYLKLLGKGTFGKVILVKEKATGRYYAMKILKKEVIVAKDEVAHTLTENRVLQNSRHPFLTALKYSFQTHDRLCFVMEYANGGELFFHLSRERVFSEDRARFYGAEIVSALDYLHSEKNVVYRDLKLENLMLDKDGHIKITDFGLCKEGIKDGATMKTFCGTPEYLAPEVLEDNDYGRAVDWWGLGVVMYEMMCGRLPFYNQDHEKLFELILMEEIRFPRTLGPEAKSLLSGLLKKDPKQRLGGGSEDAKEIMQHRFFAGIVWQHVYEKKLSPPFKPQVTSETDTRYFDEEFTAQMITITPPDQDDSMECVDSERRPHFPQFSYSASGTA
Description: (§2) kinase, ROCK2, RSK2, Src kinase, Syk, and TRKA. The % Inhibition was determined

CHK2 = biological target: T2, CHK2 (Homo sapiens, UniProt O96017); assay: Kinase Selectivity Assay (CEREP, HTRF); assay type: biochemical; conditions: read-out: % Inhibition at 10 μM Concentration, CHK2
T2 construct: CEREP, France (ran the assays)
T2 sequence (O96017 whole entry): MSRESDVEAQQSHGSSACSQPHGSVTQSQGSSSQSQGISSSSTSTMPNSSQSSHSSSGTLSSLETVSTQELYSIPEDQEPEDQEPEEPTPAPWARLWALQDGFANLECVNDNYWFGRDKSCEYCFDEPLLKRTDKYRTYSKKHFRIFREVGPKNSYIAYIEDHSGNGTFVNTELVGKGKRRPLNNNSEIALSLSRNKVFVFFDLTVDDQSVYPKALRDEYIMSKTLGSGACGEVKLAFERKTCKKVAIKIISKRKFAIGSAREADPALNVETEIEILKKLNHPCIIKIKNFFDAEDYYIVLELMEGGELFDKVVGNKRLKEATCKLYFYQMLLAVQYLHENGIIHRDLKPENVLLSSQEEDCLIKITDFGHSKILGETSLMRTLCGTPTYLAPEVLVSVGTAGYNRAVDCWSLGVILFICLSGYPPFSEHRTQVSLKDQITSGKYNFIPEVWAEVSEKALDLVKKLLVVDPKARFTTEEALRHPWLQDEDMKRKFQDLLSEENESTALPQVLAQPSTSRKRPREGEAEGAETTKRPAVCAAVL
Description: as §2

CaMK4 = biological target: T3, CaMK4 (Homo sapiens, UniProt Q16566); assay: Kinase Selectivity Assay (CEREP, HTRF); assay type: biochemical; conditions: read-out: % Inhibition at 10 μM Concentration, CaMK4
T3 construct: CEREP, France (ran the assays)
T3 sequence (Q16566 1-473): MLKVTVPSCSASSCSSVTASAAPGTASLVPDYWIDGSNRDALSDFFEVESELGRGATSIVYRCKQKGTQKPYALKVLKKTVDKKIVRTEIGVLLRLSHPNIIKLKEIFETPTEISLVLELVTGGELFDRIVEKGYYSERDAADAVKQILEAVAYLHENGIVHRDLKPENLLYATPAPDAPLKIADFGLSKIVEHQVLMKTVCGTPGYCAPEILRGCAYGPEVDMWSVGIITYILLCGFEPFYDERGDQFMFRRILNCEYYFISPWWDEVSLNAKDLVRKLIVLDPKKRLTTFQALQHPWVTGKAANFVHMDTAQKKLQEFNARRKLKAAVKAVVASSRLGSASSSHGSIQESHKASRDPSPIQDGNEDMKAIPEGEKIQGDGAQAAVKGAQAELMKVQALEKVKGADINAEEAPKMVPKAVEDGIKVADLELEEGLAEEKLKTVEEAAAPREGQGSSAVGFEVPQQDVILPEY
Description: as §2

Lck kinase = Lck kinase (Homo sapiens, UniProt P06239); assay: Kinase Selectivity Assay (CEREP, HTRF); assay type: biochemical; conditions: read-out: % Inhibition at 10 μM Concentration, Lck
Sequence of Lck kinase (P06239 whole entry): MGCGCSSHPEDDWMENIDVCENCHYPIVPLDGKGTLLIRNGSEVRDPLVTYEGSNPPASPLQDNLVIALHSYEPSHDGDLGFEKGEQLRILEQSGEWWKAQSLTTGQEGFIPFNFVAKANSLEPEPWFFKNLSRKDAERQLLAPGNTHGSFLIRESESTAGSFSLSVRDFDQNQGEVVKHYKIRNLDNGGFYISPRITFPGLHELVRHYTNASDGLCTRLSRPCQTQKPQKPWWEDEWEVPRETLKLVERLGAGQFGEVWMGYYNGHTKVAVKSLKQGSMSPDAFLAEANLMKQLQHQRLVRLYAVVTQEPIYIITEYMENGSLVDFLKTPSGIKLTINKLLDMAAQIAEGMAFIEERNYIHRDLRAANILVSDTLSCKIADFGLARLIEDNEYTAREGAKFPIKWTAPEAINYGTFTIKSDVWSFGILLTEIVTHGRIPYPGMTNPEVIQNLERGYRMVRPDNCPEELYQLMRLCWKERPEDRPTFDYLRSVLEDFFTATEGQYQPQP
Description: as §2

MAPKAPK2 = MAPKAPK2 (Homo sapiens, UniProt P49137); assay: Kinase Selectivity Assay (CEREP, HTRF); assay type: biochemical; conditions: read-out: % Inhibition at 10 μM Concentration, MAPKAPK2
Sequence of MAPKAPK2 (P49137 whole entry): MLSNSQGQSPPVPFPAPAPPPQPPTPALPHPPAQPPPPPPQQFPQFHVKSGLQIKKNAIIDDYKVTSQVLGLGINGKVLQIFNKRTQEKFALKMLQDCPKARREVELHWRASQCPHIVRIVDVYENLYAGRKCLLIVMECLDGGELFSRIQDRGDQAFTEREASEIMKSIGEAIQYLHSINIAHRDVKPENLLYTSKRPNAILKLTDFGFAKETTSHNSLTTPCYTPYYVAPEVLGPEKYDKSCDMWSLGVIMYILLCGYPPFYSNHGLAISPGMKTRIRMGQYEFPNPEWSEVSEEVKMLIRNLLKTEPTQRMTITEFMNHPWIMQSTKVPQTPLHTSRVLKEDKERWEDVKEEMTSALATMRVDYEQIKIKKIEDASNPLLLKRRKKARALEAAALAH
Description: as §2

PKCa = PKCa (Homo sapiens, UniProt P17252); assay: Kinase Selectivity Assay (CEREP, HTRF); assay type: biochemical; conditions: read-out: % Inhibition at 10 μM Concentration, PKCalpha
Description: as §2

ROCK2 = ROCK2 (Homo sapiens, UniProt O75116); assay: Kinase Selectivity Assay (CEREP, HTRF); assay type: biochemical; conditions: read-out: % Inhibition at 10 μM Concentration, ROCK2
Sequence of ROCK2 (O75116 whole entry): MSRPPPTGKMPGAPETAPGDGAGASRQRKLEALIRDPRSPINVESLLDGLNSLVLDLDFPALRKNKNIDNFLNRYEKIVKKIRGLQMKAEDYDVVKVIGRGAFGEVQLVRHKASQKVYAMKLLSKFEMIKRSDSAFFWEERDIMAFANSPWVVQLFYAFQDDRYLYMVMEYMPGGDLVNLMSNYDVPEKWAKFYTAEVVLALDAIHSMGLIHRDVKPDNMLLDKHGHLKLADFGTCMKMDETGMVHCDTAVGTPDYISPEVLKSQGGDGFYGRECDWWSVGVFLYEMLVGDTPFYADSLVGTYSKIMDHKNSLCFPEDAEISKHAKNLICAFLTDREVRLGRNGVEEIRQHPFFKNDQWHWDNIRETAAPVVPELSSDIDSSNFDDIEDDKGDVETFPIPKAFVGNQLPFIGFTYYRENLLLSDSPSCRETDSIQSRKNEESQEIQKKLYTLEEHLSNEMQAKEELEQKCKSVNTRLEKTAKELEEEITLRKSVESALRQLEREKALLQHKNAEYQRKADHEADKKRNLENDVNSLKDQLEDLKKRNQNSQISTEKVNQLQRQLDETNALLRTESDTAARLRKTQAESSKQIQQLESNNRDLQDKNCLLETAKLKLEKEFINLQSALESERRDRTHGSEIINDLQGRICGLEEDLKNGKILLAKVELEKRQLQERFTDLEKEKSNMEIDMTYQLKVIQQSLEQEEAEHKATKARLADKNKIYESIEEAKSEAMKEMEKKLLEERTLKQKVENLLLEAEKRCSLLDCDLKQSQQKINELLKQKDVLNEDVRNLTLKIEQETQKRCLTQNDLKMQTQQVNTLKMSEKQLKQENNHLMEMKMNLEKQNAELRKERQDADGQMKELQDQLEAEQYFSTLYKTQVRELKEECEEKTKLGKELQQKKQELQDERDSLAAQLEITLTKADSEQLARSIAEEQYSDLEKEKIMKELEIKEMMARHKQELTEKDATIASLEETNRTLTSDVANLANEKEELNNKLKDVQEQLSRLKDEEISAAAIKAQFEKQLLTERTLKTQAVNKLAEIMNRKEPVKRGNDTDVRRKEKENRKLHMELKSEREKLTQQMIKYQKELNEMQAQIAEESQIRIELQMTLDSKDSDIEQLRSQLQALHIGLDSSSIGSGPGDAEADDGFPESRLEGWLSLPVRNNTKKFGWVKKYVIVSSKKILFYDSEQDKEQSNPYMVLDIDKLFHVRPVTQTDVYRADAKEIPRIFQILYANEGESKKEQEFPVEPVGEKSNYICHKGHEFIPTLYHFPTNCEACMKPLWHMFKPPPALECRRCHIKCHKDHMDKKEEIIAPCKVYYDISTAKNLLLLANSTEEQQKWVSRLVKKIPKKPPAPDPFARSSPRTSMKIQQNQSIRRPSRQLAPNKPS
Description: as §2

RSK2 = RSK2 (Homo sapiens, UniProt P51812); assay: Kinase Selectivity Assay (CEREP, HTRF); assay type: biochemical; conditions: read-out: % Inhibition at 10 μM Concentration, RSK2
Sequence of RSK2 (P51812 whole entry): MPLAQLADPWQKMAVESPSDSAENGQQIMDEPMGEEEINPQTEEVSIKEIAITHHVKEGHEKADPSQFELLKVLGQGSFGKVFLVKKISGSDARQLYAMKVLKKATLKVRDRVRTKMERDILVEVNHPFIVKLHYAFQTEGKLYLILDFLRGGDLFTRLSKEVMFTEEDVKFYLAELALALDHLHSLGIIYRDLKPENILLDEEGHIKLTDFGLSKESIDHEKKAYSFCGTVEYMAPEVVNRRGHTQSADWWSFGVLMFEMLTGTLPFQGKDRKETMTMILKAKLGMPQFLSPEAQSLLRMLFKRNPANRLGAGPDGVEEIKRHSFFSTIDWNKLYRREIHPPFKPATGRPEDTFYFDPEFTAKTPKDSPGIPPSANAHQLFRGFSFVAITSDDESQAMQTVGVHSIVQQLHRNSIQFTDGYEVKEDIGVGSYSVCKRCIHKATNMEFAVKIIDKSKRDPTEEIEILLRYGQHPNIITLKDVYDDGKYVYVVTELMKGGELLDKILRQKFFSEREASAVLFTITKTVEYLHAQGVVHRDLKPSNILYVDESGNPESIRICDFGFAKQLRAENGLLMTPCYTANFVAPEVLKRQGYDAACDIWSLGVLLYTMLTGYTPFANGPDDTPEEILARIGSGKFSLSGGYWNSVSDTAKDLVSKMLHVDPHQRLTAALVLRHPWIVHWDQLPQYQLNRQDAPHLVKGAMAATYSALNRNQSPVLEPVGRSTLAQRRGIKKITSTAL
Description: as §2

Syk = Syk (Homo sapiens, UniProt P43405); assay: Kinase Selectivity Assay (CEREP, HTRF); assay type: biochemical; conditions: read-out: % Inhibition at 10 μM Concentration, Syk
Description: as §2

[5] = HCC1954, 120 h, 5 days culture, read-out: Cell Line GI50 Range, HCC-1954
[6] = HCC1954, extended panel (Table 9), read-out: GI50 Range, HCC1954

SMILES	GI50 (A549 lung cancer cells)	GI50 [1, 5]	GI50 [2]	GI50 [3]	GI50 (SW620 colon cancer cells)	GI50 [4]	GI50 [1, 6]	inhibition at 10 µM (Akt1/PKBa)	inhibition at 10 µM (CHK2)	inhibition at 10 µM (CaMK4)	inhibition at 10 µM (Lck kinase)	inhibition at 10 µM (MAPKAPK2)	inhibition at 10 µM (PKCa)	inhibition at 10 µM (ROCK2)	inhibition at 10 µM (RSK2)	inhibition at 10 µM (Syk)
CN(C)Cc1ccc(/C=C/c2n[nH]c3cc(C=C4C(=O)Nc5ccccc54)ccc23)cc1 (mixture of isomers) [Example A106, (E and Z)-3-[(3-{(E)-2-[4-((dimethylamino)methyl)-phenyl]-ethenyl}-1H-indazol-6-yl)methylidene]-1,3-dihydro-2H-indol-2-one 2,2,2-trifluoroacetate]	< 5 µM	< 5 µM	< 5 µM	< 5 µM	< 5 µM	5 to 20 µM										
CN1CCN(c2ccc(/C=C/c3n[nH]c4cc(C=C5C(=O)Nc6ccccc65)ccc34)cn2)CC1 (mixture of isomers) [Example A108, (E and Z)-3-((3-((E)-2-(6-(4-methylpiperazin-1-yl)pyridin-3-yl)vinyl)-1H-indazol-6-yl)methylene)indolin-2-one]	< 5 µM	< 5 µM	< 5 µM	< 5 µM	< 5 µM	< 5 µM	< 5 µM									
O=C1Nc2ccccc2/C1=C\c1ccc2c(/C=C/c3ccccc3Cl)n[nH]c2c1 [Example A60, (E)-3-((3-((E)-2-chlorostyryl)-1H-indazol-6-yl)methylene)indolin-2-one]								-14%	6%	-15%	30%	19%	-1%	-1%	0%	
O=C1Nc2ccccc2C1=Cc1ccc2c(/C=C/c3ccccn3)n[nH]c2c1 (mixture of isomers) [Example A41, (E and Z)-3-((3-((E)-2-(pyridin-2-yl)vinyl)-1H-indazol-6-yl)methylene)indolin-2-one]	5 to 20 µM	20 to 50 µM	< 5 µM	< 5 µM	5 to 20 µM	> 50 µM	< 5 µM	-3%	22%	27%	88%	0%	2%	-3%	38%	70%
O=C1Nc2ncc(Br)cc2C1=Cc1ccc2c(/C=C/c3ccncc3)n[nH]c2c1 (mixture of isomers) [Example A109, (E and Z)-5-bromo-3-((3-((E)-2-(pyridin-4-yl)vinyl)-1H-indazol-6-yl)methyl-ene)-1H-pyrrolo[2,3-b]pyridin-2(3H)-one]	< 5 µM	> 50 µM	< 5 µM	< 5 µM	< 5 µM	> 50 µM	> 50 µM									
O=C1Nc2ccccc2/C1=C\c1ccc2[nH]nnc2c1 [Example A1, (E)-3-((1H-benzo[d][1,2,3]triazol-5-yl)methylene)indolin-2-one]								-3%	14%	3%		6%	9%	1%	4%	-2%
COc1ccc2c(c1)C(=Cc1ccc3c(-c4ccc(N5CCN(C)CC5)nc4)n[nH]c3c1)C(=O)N2 (mixture of isomers) [Example A97, (E and Z)-5-methoxy-3-((3-(6-(4-methylpiperazin-1-yl)pyridin-3-yl)-1H-indazol-6-yl)methylene)indolin-2-one]	< 5 µM	< 5 µM	< 5 µM	< 5 µM	< 5 µM	20 to 50 µM	< 5 µM	-4%	4%	2%	89%	4%	9%	22%	37%	21%
O=C1Nc2ccccc2/C1=C\c1ccc2cn[nH]c2c1 [Example A5, (E)-3-((1H-indazol-6-yl)methylene)indolin-2-one]								-4%	2%	26%	0%	0%	0%	3%	1%	-3%

Source: patent US8765748B2, “Indazolyl, benzimidazolyl, benzotriazolyl substituted indolinone derivatives as kinase inhibitors useful in the treatment of cancer” (University Health Network, priority 2007, dated 2014)
